Assays:
[1] = system: subtype A hepatitis B virus; assay: Mouse venous hypertension model (genotype A), HBeAg in peripheral blood by ELISA; type: in vivo, Wild-type mice (C57/B6); settings: twice a day, oral gavage, 9th day after infection, Figure 8
Description: On the 9th day after infection, about 100µl of blood was harvested from each animal, serum was separated, and the concentration of HBeAg in peripheral blood was measured by ELISA.

hepatitis B virus [2] = assay: HBV core antigen (HBeAg) in culture supernatant of HepAD38 cells, ELISA; type: cell-based; settings: 16µM to 2µM, HepAD38, 24h to 144h, Figure 14
Description: A solvent-only control group (DMF) was also set up. Three replicate wells were set up for all experiments. 500µL of culture supernatant was taken at 24h, 48h, 72h, 96h, and 144h after adding the test article for ELISA to detect HBV core antigen (HBeAg) concentration.

[3] = system: HepG2, HCT-116, Hela, A549, MCF7, MKN45, THP-1, Huh7, and 293 cells; assay: Cytotoxicity test, MTT assay, summary over the nine kinds of cells; type: cell-based; settings: 72h
Description: […]. Various cells in the logarithmic growth phase were seeded in 96-well plates at 6,000 cells/well and cultured for 24h. […]. The dosage of DMSO in the solvent control group was based on the maximum dose of 0.1% used in the test group, with four duplicate wells for each concentration. Cells were treated with the drug for 72h and then added with 20µL 5 mg/mL MTT, cultured at 37°C for 4h, after added 100 µ L triple solution (10% SDS, 5% isobutanol, 12 mM hydrochloric acid), 96-well cell culture plate was placed in an incubator containing 5% CO2 at 37 ± 1°C overnight. OD value at 570nm was measured on a microplate reader.
The inhibition rate of tumor cell growth was calculated according to the following formula: Inhibition rate(%) = [(OD570controlwell−OD570dosewell)/OD570controlwell] × 100. [formula]

hepatitis B virus [4] = assay: HBV genomic DNA replication in HepG2 cells transfected with linear HBV genomic DNA, quantitative PCR of circular HBV DNA; type: cell-based, hepatitis B virus (genotype B); settings: 10µM, HepG2, 96 hours, Figure 1
Description: After 96 hours, cells were divided into two groups, with genomic DNA extracted from one. From the other, free DNA was extracted using HIRT extraction, and linear DNA was removed using DNA exonuclease (NEB). Circular HBV DNA and genomic GAPDH were detected by quantitative PCR. The highest value of circular HBV DNA was defined as 100% (n=5).

hepatitis B virus [5] = assay: HBV transgenic mouse model, serum HBsAg by ELISA; type: in vivo, male C57BL/6-HBV transgenic mice; settings: 48 mg/kg intragastric once daily for 35 days, Figure 18
Description: Ten male C57BL/6-HBV transgenic mice (provided by Beijing Vitalstar Biotechnology Co., Ltd.) aged six weeks were randomly divided into two groups (control group, n=5; administration group, n=5).
Route of administration: Intragastric administration, 1mL sterile syringe was used for administration.
Dosing frequency: The drug was administered once daily for 35 consecutive days, with free access to food and water.
Dose-volume: 10 mL/kg. The dose-volume for each animal was determined based on the most recent body weight before administration.
The serum was separated and diluted 5000 times with PBS, respectively. The ELISA kit detected the concentration of HBV surface antigen (HBsAg). The OD value at 450 nm was measured on a microplate reader.
The inhibition rate was calculated according to the following formula: Inhibition rate = [(OD450controlwell−OD450dosewell)/OD450 control; well] × 100% [formula]

3TC/ETV-resistant HBV = assay: Mouse venous hypertension model, serum HBsAg by ELISA (Example 13, Figure 17); type: in vivo, male C57 mice; settings: 150 mg/day (converted adult dose, 22.8 mg/kg/day in mice), oral gavage, five days
Source text: The specific method was based on the instructions of the ELISA kit.

hepatitis B virus [6] = assay: Mouse venous hypertension model (genotype B), HBV genomic DNA in liver by fluorescence quantitative PCR; type: in vivo, Wild-type mice (C57/B6); settings: 50 mg/kg/day oral gavage, 11th day after infection, Figure 5
Source text: . On the 11th day after infection, the mice were sacrificed, the livers of the mice were isolated, DpnI was transferred to exclude source DNA, and HBV genomic DNA in the livers of the mice was detected by fluorescence quantitative PCR (n=5).

hepatitis B virus [7] = assay: HBsAg in culture supernatant of HBV DNA-transfected HepG2 cells, ELISA; settings: 10µM, HepG2, 96h after transfection, Figure 2
Description: Hepatocyte HepG2 cells with good growth status were seeded in 6-well plates at 10^6 cells/well and, after being left overnight, 2µg of linear HBV viral genomic DNA (genotype B) was transfected into each well using lipofectamine 2000 to establish a viral infection cell model. […] An equal volume of DMSO (1/1000, v/v) was added to the control group. Forty-eight hours after transfection, cells from each well were passaged into one 6cm culture plate. After transfection, HBsAg levels in the culture supernatant were quantified by ELISA 96h.
Well-grown hepatocyte HepG2 cells 10^6 cells/well were seeded in 6-well plates, and after overnight, 2µg of linear HBV viral genomic DNA (genotype B) was transfected per well using Lipofectamine 2000. […] An equal volume of DMSO (1/1000, v/v) was added to the control group. Forty-eight hours after transfection, cells from each well were passaged into one 6cm culture plate. HBV surface antigen (HBsAg) in the culture medium was detected by ELISA 96h after transfection.

B and T cells = assay: Immune cells in blood of HBV-infected mice, flow cytometry; settings: 4, 8, 16 mg/kg/time, twice a day, oral gavage, day 9, Figure 19
Description: Six-week-old male C57 mice were rapidly injected with 10µg/mouse of viral genomic DNA (genotype A) by tail vein injection in a short period. Viral infection was established using a venous hypertension model and randomly divided into groups. […] At the same time, a blank control was set up, and oral administration in uninfected mice was equivalent to the model group.
On day 9, mice were sacrificed to collect blood stained with flow antibody after fission red. All cells were treated with anti-FcγRIII/ II (purchased from BD Biosciences) in PBS for 30 min. CD3e-FITC (purchased from BD Biosciences). CD4-PE, CD8a-APC-Vio770, and CD34-FITC (GE). CD19-APC, CD11b-PE-Cyanine7, and CD117-efflor 450 (purchased from eBioscience). After staining, the samples were suspended using 500µL PBS and analyzed by BD Aria III flow cytometer.

hepatitis B virus [8] = assay: Mouse venous hypertension model (genotype B), HBsAg in peripheral blood by ELISA; type: in vivo, Wild-type mice (C57/B6)
Description: . On the 9th day after infection, about 100µl/mouse of blood was harvested from the tail to separate serum, and the concentration of HBsAg in peripheral blood was detected by ELISA. The OD value at 450nm was measured on a microplate reader.
. On the 9th day after infection, about 100µl of blood was harvested from each animal, serum was separated, and the concentration of HBsAg in peripheral blood was measured by ELISA.

hepatitis B virus [9] = assay: HBsAg in culture supernatant of HepAD38 cells, ELISA; type: cell-based; settings: 10µM and 5µM, HepAD38, 24h, 48h, 96h, 144h, Figure 13
Description: Two groups of controls were also set up, one with only solvents (DMF) and one with antibiotics (tetracycline). Three replicate wells were set up for all experiments. 500µL of culture supernatant was taken at 24h, 48h, 96h, and 144h after adding the test article for ELISA to detect HBsAg concentration (Figure 13).

hepatitis B virus [10] = assay: Mouse venous hypertension model (genotype B), core antigen (HBeAg) in peripheral blood by ELISA; type: in vivo, Wild-type mice (C57/B6); settings: 50 mg/kg/day oral gavage, 9th day after infection, Figure 4
Description: . On the 9th day after infection, about 100µl/mouse of blood was harvested from the tail to separate serum. The concentration of hepatitis B virus core antigen (HBeAg) in peripheral blood was measured by ELISA. The OD value at 450nm was measured on a microplate reader.

## CC(C)c1ccc2oc3nc(N)c(C(=O)O)cc3c(=O)c2c1 [amlexanox, Amlexanox]
[1]; 16 mg/kg/time
  concentration of HBeAg in peripheral blood: still effective
[1]; 4, 8 and 16 mg/kg/time
  concentration of HBeAg in peripheral blood, dose-response relationship: its ability to inhibit hepatitis B virus is enhanced in a mouse model of venous hypertension
Hepatitis B virus [2]
  HBV core antigen (HBeAg) concentration in culture supernatant: significantly reduce HBsAg level and core antigen level
[3]; nine kinds of cells, below the concentration of 50 µM
  cytotoxicity: no obvious cytotoxicity
[3]; remaining five cells (other than MKN45, HCT-116, MCF7, Huh7), 100 µM
  cytotoxicity: no significant cytotoxicity
Hepatitis B virus [4]
  Circular HBV DNA (hepatitis B virus genomic DNA replication): inhibits hepatitis B virus genomic DNA replication in cell models with effects comparable to existing clinical drugs
Hepatitis B virus [5]
  HBV surface antigen (HBsAg) in serum: could inhibit HBsAg level in transgenic mice
3TC/ETV-resistant HBV
  HBsAg level in the blood: significantly decreased
Hepatitis B virus [6]
  HBV genomic DNA in the livers of the mice: can significantly inhibit the load of viral DNA, and its effect is not lower than that of clinically used nucleotide-like drugs lamivudine and entecavir
Hepatitis B virus [7]
  HBsAg levels in the culture supernatant: reduces HBsAg levels in cell models, and its effect is superior to that of existing clinical drugs
B and T cells
  effect on immune cells (B and T cells) in blood: had an inhibitory effect on both B and T cells, and the inhibitory effect was dose-dependent
Hepatitis B virus [8]; 50 mg/kg/day oral gavage, 9th day after infection, Figure 3
  concentration of HBsAg in peripheral blood: reduced HBsAg levels in a mouse model of venous hypertension, and its effect is better than that of lamivudine
Hepatitis B virus [8]; oral gavage, 9th day after infection, Figure 7
  dose of significant effect (inhibition of hepatitis B virus, HBsAg): 10 to 50 mg/kg
Hepatitis B virus [8]; oral gavage, daily dose as in Figure 7, 9th day after infection
  concentration of HBsAg in peripheral blood, dose-response relationship: its ability to inhibit the hepatitis B virus in the venous hypertension mouse model is enhanced
Hepatitis B virus [9]
  HBsAg concentration in culture supernatant: significantly reduce HBsAg level
Hepatitis B virus [10]
  concentration of hepatitis B virus core antigen (HBeAg) in peripheral blood: reduced hepatitis B virus core antigen levels in a mouse model of venous hypertension, and its effect was comparable to that of lamivudine

Reference: EP3991729A1, “USE OF AMLEXANOX IN PREPARING ANTI-HEPATITIS VIRUS DRUG” (Marine Biomedical Research Institute Of Qingdao Co., Ltd., priority 2019, dated 2020)
